Results published in patent publication US20250353891A1 (MEDIMMUNE LIMITED, priority 2022, published 2025).
Starred links: 1 amine or outer side, 2 acyl side, 3 side chain; linkers in the order of their positions; H or OH if unused. Non-standard residues stand in square brackets, D forms with d. Residues, ends and D or L forms follow the SMILES beside them. Groups on a side chain read outwards from the residue. *: point of attachment. C20 diacid = O=C(O)CCCCCCCCCCCCCCCCCCC(=O)*; C18 diacid = O=C(O)CCCCCCCCCCCCCCCCC(=O)*; γGlu = O=C(O)[C@H](CCC(=O)[*:2])N[*:1]; αMeF = C[C@](N)(Cc1ccccc1)C(=O)O; AEEA = NCCOCCOCC(=O)O; Aib = CC(C)(N)C(=O)O

What was measured:
[1] = biological target: human GLP-1 receptor (hGLP-1R) (Homo sapiens, UniProt P43220); assay: cAMP production (HTRF) in CHO cells expressing hGLP-1R; assay type: cell-based; parameters: expressed in transfected cells; conditions: for EC50: Table 7, peptides modified at position 20, cAMP in CHO hGLP-1R cells, geometric mean, read-out: hGLP-1R EC50; for % Relative Potency Ratio: Table 7, % GLP-1R activity relative to GLP-1 / % GlucR activity relative to glucagon
Sequence of human GLP-1 receptor (hGLP-1R) (P43220 24-463): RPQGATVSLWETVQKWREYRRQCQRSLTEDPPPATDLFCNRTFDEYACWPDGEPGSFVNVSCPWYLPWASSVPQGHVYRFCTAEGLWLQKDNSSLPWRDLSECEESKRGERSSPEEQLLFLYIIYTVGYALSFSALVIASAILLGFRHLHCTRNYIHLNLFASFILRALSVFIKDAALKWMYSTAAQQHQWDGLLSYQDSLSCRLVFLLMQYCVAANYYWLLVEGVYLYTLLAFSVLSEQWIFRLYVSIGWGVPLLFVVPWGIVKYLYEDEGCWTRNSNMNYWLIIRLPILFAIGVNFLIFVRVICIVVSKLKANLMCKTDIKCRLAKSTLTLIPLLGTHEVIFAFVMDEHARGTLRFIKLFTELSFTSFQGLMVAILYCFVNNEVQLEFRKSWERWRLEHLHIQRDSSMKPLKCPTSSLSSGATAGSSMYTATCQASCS
Summary of the method: (§1)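 Potency values represent EC50 from 4-parameter logistic curves of HTRF % Delta F signal. Receptor-expressing CHO cells (hGCGR 2×10^5 cells/mL, hGLP-1R 1×10^5 cells/mL) were exposed for 30 min at room temperature before two-step cAMP detection.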

[2] = biological target: human glucagon receptor (hGCGR) (Homo sapiens, UniProt P47871); assay: cAMP production (HTRF) in CHO cells expressing hGCGR; assay type: cell-based; parameters: expressed in transfected cells; conditions: Table 7, peptides modified at position 20; cAMP in CHO hGCGR cells; geometric mean; read-out: hGluc-R EC50
Sequence of human glucagon receptor (hGCGR) (P47871 26-477): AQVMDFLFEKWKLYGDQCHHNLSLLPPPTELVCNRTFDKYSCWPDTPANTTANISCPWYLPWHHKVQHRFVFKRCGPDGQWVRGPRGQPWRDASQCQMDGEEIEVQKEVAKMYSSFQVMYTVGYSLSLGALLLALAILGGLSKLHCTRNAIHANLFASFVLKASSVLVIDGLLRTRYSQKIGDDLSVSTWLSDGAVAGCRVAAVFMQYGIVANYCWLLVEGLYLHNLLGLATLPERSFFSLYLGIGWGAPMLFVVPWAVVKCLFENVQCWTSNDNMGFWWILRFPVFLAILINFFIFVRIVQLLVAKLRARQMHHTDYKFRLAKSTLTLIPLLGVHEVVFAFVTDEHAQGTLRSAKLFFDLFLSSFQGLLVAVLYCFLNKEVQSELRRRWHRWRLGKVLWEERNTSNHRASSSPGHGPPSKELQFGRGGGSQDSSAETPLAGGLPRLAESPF
Summary of the method: as §1

SMILES	EC50 [1]	% Relative Potency Ratio [1]	EC50 [2]
CC[C@H](C)[C@H](NC(=O)C(C)(C)NC(=O)[C@H](CCC(N)=O)NC(=O)[C@@H](NC(=O)[C@](C)(Cc1ccccc1)NC(=O)[C@H](CC(=O)O)NC(=O)[C@H](CCCCNC(=O)CC[C@H](NC(=O)CCCCCCCCCCCCCCCCC(=O)O)C(=O)O)NC(=O)[C@H](C)NC(=O)[C@H](C)NC(=O)[C@H](CCCNC(=N)N)NC(=O)[C@H](CO)NC(=O)[C@H](CC(=O)O)NC(=O)[C@H](CC(C)C)NC(=O)[C@](C)(Cc1ccccc1)NC(=O)[C@H](CCCCN)NC(=O)[C@H](CO)NC(=O)[C@@H](NC(=O)[C@H](CC(=O)O)NC(=O)[C@H](CO)NC(=O)[C@@H](NC(=O)[C@](C)(Cc1ccccc1)NC(=O)[C@H](CO)NC(=O)CNC(=O)[C@H](Cc1c[nH]cn1)NC(=O)C(C)(C)NC(=O)[C@@H](N)Cc1c[nH]cn1)[C@@H](C)O)C(C)C)C(C)C)C(=O)N[C@@H](C)C(=O)N[C@@H](CC(N)=O)C(=O)N[C@H](C(N)=O)[C@@H](C)O [Peptide 271] (H-H[Aib]HGS[αMeF]TSDVSK[αMeF]LDSRAAK([γGlu-C18 diacid])D[αMeF]VQ[Aib]IANT-NH2; N-terminus assumed)	0.0546 nM	1.0	0.028 nM
CC[C@H](C)[C@H](NC(=O)C(C)(C)NC(=O)[C@H](CCC(N)=O)NC(=O)[C@@H](NC(=O)[C@](C)(Cc1ccccc1)NC(=O)[C@H](CC(=O)O)NC(=O)[C@H](CCCCNC(=O)COCCOCCNC(=O)COCCOCCNC(=O)CCCCCCCCCCCCCCCCC(=O)O)NC(=O)[C@H](C)NC(=O)[C@H](C)NC(=O)[C@H](CCCNC(=N)N)NC(=O)[C@H](CO)NC(=O)[C@H](CC(=O)O)NC(=O)[C@H](CC(C)C)NC(=O)[C@](C)(Cc1ccccc1)NC(=O)[C@H](CCCCN)NC(=O)[C@H](CO)NC(=O)[C@@H](NC(=O)[C@H](CC(=O)O)NC(=O)[C@H](CO)NC(=O)[C@@H](NC(=O)[C@](C)(Cc1ccccc1)NC(=O)[C@H](CO)NC(=O)CNC(=O)[C@H](Cc1c[nH]cn1)NC(=O)C(C)(C)NC(=O)[C@@H](N)Cc1c[nH]cn1)[C@@H](C)O)C(C)C)C(C)C)C(=O)N[C@@H](C)C(=O)N[C@@H](CC(N)=O)C(=O)N[C@H](C(N)=O)[C@@H](C)O [Peptide 272] (H-H[Aib]HGS[αMeF]TSDVSK[αMeF]LDSRAAK([AEEA-AEEA-C18 diacid])D[αMeF]VQ[Aib]IANT-NH2)	0.0157 nM	1.8	0.0143 nM
CC[C@H](C)[C@H](NC(=O)C(C)(C)NC(=O)[C@H](CCC(N)=O)NC(=O)[C@@H](NC(=O)[C@](C)(Cc1ccccc1)NC(=O)[C@H](CC(=O)O)NC(=O)[C@H](CCCCNC(=O)COCCOCCNC(=O)CCCCCCCCCCCCCCCCC(=O)O)NC(=O)[C@H](C)NC(=O)[C@H](C)NC(=O)[C@H](CCCNC(=N)N)NC(=O)[C@H](CO)NC(=O)[C@H](CC(=O)O)NC(=O)[C@H](CC(C)C)NC(=O)[C@](C)(Cc1ccccc1)NC(=O)[C@H](CCCCN)NC(=O)[C@H](CO)NC(=O)[C@@H](NC(=O)[C@H](CC(=O)O)NC(=O)[C@H](CO)NC(=O)[C@@H](NC(=O)[C@](C)(Cc1ccccc1)NC(=O)[C@H](CO)NC(=O)CNC(=O)[C@H](Cc1c[nH]cn1)NC(=O)C(C)(C)NC(=O)[C@@H](N)Cc1c[nH]cn1)[C@@H](C)O)C(C)C)C(C)C)C(=O)N[C@@H](C)C(=O)N[C@@H](CC(N)=O)C(=O)N[C@H](C(N)=O)[C@@H](C)O [Peptide 273] (H-H[Aib]HGS[αMeF]TSDVSK[αMeF]LDSRAAK([AEEA-C18 diacid])D[αMeF]VQ[Aib]IANT-NH2)	0.0221 nM	2.1	0.0233 nM
CC[C@H](C)[C@H](NC(=O)C(C)(C)NC(=O)[C@H](CCC(N)=O)NC(=O)[C@@H](NC(=O)[C@](C)(Cc1ccccc1)NC(=O)[C@H](CC(=O)O)NC(=O)[C@H](CCCCNC(=O)COCCOCCNC(=O)CC[C@H](NC(=O)CC[C@H](NC(=O)CCCCCCCCCCCCCCCCC(=O)O)C(=O)O)C(=O)O)NC(=O)[C@H](C)NC(=O)[C@H](C)NC(=O)[C@H](CCCNC(=N)N)NC(=O)[C@H](CO)NC(=O)[C@H](CC(=O)O)NC(=O)[C@H](CC(C)C)NC(=O)[C@](C)(Cc1ccccc1)NC(=O)[C@H](CCCCN)NC(=O)[C@H](CO)NC(=O)[C@@H](NC(=O)[C@H](CC(=O)O)NC(=O)[C@H](CO)NC(=O)[C@@H](NC(=O)[C@](C)(Cc1ccccc1)NC(=O)[C@H](CO)NC(=O)CNC(=O)[C@H](Cc1c[nH]cn1)NC(=O)C(C)(C)NC(=O)[C@@H](N)Cc1c[nH]cn1)[C@@H](C)O)C(C)C)C(C)C)C(=O)N[C@@H](C)C(=O)N[C@@H](CC(N)=O)C(=O)N[C@H](C(N)=O)[C@@H](C)O [Peptide 274] (H-H[Aib]HGS[αMeF]TSDVSK[αMeF]LDSRAAK([AEEA-γGlu-γGlu-C18 diacid])D[αMeF]VQ[Aib]IANT-NH2)	0.0271 nM	2.3	0.0313 nM
CC[C@H](C)[C@H](NC(=O)C(C)(C)NC(=O)[C@H](CCC(N)=O)NC(=O)[C@@H](NC(=O)[C@](C)(Cc1ccccc1)NC(=O)[C@H](CC(=O)O)NC(=O)[C@H](CCCCNC(=O)CC[C@H](NC(=O)CC[C@H](NC(=O)CCCCCCCCCCCCCCCCCCC(=O)O)C(=O)O)C(=O)O)NC(=O)[C@H](C)NC(=O)[C@H](C)NC(=O)[C@H](CCCNC(=N)N)NC(=O)[C@H](CO)NC(=O)[C@H](CC(=O)O)NC(=O)[C@H](CC(C)C)NC(=O)[C@](C)(Cc1ccccc1)NC(=O)[C@H](CCCCN)NC(=O)[C@H](CO)NC(=O)[C@@H](NC(=O)[C@H](CC(=O)O)NC(=O)[C@H](CO)NC(=O)[C@@H](NC(=O)[C@](C)(Cc1ccccc1)NC(=O)[C@H](CO)NC(=O)CNC(=O)[C@H](Cc1c[nH]cn1)NC(=O)C(C)(C)NC(=O)[C@@H](N)Cc1c[nH]cn1)[C@@H](C)O)C(C)C)C(C)C)C(=O)N[C@@H](C)C(=O)N[C@@H](CC(N)=O)C(=O)N[C@H](C(N)=O)[C@@H](C)O [Peptide 275] (H-H[Aib]HGS[αMeF]TSDVSK[αMeF]LDSRAAK([γGlu-γGlu-C20 diacid])D[αMeF]VQ[Aib]IANT-NH2)	0.111 nM	3.1	0.175 nM
CC[C@H](C)[C@H](NC(=O)C(C)(C)NC(=O)[C@H](CCC(N)=O)NC(=O)[C@@H](NC(=O)[C@](C)(Cc1ccccc1)NC(=O)[C@H](CC(=O)O)NC(=O)[C@H](CCCCNC(=O)CC[C@H](NC(=O)CCCCCCCCCCCCCCCCCCC(=O)O)C(=O)O)NC(=O)[C@H](C)NC(=O)[C@H](C)NC(=O)[C@H](CCCNC(=N)N)NC(=O)[C@H](CO)NC(=O)[C@H](CC(=O)O)NC(=O)[C@H](CC(C)C)NC(=O)[C@](C)(Cc1ccccc1)NC(=O)[C@H](CCCCN)NC(=O)[C@H](CO)NC(=O)[C@@H](NC(=O)[C@H](CC(=O)O)NC(=O)[C@H](CO)NC(=O)[C@@H](NC(=O)[C@](C)(Cc1ccccc1)NC(=O)[C@H](CO)NC(=O)CNC(=O)[C@H](Cc1c[nH]cn1)NC(=O)C(C)(C)NC(=O)[C@@H](N)Cc1c[nH]cn1)[C@@H](C)O)C(C)C)C(C)C)C(=O)N[C@@H](C)C(=O)N[C@@H](CC(N)=O)C(=O)N[C@H](C(N)=O)[C@@H](C)O [Peptide 276] (H-H[Aib]HGS[αMeF]TSDVSK[αMeF]LDSRAAK([γGlu-C20 diacid])D[αMeF]VQ[Aib]IANT-NH2)	0.143 nM	1.3	0.0914 nM
CC[C@H](C)[C@H](NC(=O)C(C)(C)NC(=O)[C@H](CCC(N)=O)NC(=O)[C@@H](NC(=O)[C@](C)(Cc1ccccc1)NC(=O)[C@H](CC(=O)O)NC(=O)[C@H](CCCCNC(=O)COCCOCCNC(=O)COCCOCCNC(=O)CCCCCCCCCCCCCCCCCCC(=O)O)NC(=O)[C@H](C)NC(=O)[C@H](C)NC(=O)[C@H](CCCNC(=N)N)NC(=O)[C@H](CO)NC(=O)[C@H](CC(=O)O)NC(=O)[C@H](CC(C)C)NC(=O)[C@](C)(Cc1ccccc1)NC(=O)[C@H](CCCCN)NC(=O)[C@H](CO)NC(=O)[C@@H](NC(=O)[C@H](CC(=O)O)NC(=O)[C@H](CO)NC(=O)[C@@H](NC(=O)[C@](C)(Cc1ccccc1)NC(=O)[C@H](CO)NC(=O)CNC(=O)[C@H](Cc1c[nH]cn1)NC(=O)C(C)(C)NC(=O)[C@@H](N)Cc1c[nH]cn1)[C@@H](C)O)C(C)C)C(C)C)C(=O)N[C@@H](C)C(=O)N[C@@H](CC(N)=O)C(=O)N[C@H](C(N)=O)[C@@H](C)O [Peptide 277] (H-H[Aib]HGS[αMeF]TSDVSK[αMeF]LDSRAAK([AEEA-AEEA-C20 diacid])D[αMeF]VQ[Aib]IANT-NH2)	0.0495 nM	2.3	0.0573 nM
CC[C@H](C)[C@H](NC(=O)C(C)(C)NC(=O)[C@H](CCC(N)=O)NC(=O)[C@@H](NC(=O)[C@](C)(Cc1ccccc1)NC(=O)[C@H](CC(=O)O)NC(=O)[C@H](CCCCNC(=O)COCCOCCNC(=O)CCCCCCCCCCCCCCCCCCC(=O)O)NC(=O)[C@H](C)NC(=O)[C@H](C)NC(=O)[C@H](CCCNC(=N)N)NC(=O)[C@H](CO)NC(=O)[C@H](CC(=O)O)NC(=O)[C@H](CC(C)C)NC(=O)[C@](C)(Cc1ccccc1)NC(=O)[C@H](CCCCN)NC(=O)[C@H](CO)NC(=O)[C@@H](NC(=O)[C@H](CC(=O)O)NC(=O)[C@H](CO)NC(=O)[C@@H](NC(=O)[C@](C)(Cc1ccccc1)NC(=O)[C@H](CO)NC(=O)CNC(=O)[C@H](Cc1c[nH]cn1)NC(=O)C(C)(C)NC(=O)[C@@H](N)Cc1c[nH]cn1)[C@@H](C)O)C(C)C)C(C)C)C(=O)N[C@@H](C)C(=O)N[C@@H](CC(N)=O)C(=O)N[C@H](C(N)=O)[C@@H](C)O [Peptide 278] (H-H[Aib]HGS[αMeF]TSDVSK[αMeF]LDSRAAK([AEEA-C20 diacid])D[αMeF]VQ[Aib]IANT-NH2)	0.0789 nM	2.1	0.0835 nM
